Assay [1] addresses T1, DmOctβ1 receptor (Drosophila melanogaster, UniProt Q9VCZ3).
T1 construct: expressed in transfected cells; host or cells: flpTM cells (HEK293 flpIn, Invitrogen #750-07, carrying the CNGA2 variant)
T1 sequence (Q9VCZ3 1-508): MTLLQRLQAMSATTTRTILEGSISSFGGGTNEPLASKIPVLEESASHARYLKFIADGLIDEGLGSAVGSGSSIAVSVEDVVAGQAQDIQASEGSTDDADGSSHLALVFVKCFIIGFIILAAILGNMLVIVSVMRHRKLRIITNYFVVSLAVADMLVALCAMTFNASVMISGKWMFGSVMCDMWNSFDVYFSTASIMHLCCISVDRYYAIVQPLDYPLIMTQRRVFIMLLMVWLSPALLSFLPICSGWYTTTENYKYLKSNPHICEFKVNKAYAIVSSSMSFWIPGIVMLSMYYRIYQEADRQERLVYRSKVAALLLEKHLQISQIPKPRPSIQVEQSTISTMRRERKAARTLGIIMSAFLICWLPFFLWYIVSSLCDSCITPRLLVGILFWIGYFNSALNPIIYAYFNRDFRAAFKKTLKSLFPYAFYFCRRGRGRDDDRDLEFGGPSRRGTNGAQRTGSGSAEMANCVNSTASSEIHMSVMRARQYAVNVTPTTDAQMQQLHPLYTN
Kind of assay: Stopped-flow flash photolysis of caged octopamine in Fluo-4-loaded flpTM-DmOctβ1 cells. The conditions noted are these: for response time after UV-flash: 10 µM caged compound, 50 ms flash, 100 µM IBMX. Format: cell-based. An excerpt: Neutral density filters that regulate the transmission of light (5%, 25%, 50%, 80%, 100%) were installed, allowing application of different light intensities.
In the previous stopped-flow experiments, we initiated the DmOctβ1 receptor-activated reaction cascade by mixing cells with increasing concentrations of octopamine. Now, we used a similar strategy but substituted the biogenic amine for a constant concentration of octopamine fused to a coumarin-based cage group ({8-[bis(carboxymethyl)aminomethyl]-6-bromo-7-hydroxycoumarin-4-yl}methoxycarbon-yl; BBHCMOC-octopamine) from which the biologically active octopamine was released by light flashes. The Fluo-4-loaded flpTM-DmOctβ1 cells were mixed with a final concentration of 10 µM BBHCMOC-octopamine in the cuvette of the stopped-flow apparatus. After 2 s, a UV-flash was triggered for 50 ms and the fluorescence intensities were recorded. The time when triggering the light flash was defined as time point t = 0. Different light intensities were successively applied (5%, 25%, 50%, 80%, 100% intensity). To avoid fluctuations in the [cAMP]i due to cell-endogenous phosphodiesterase activity, the experiments were performed in the presence of 100 µM IBMX. Figure 7 summarizes the results that were obtained with BBHCMOC-octopamine.
For the photolysis of the caged compounds with ultraviolet (UV)-light, a Xe-flash lamp (JML-C2; Rapp Opto Electronics, Wedel, Germany) was coupled to the cuvette via an UV-light permeable light guide (Schott). A UV-2 interference filter was placed between the Xe-flash lamp and light guide to select for the UV-light needed for the photolysis of the caged compounds. Additionally, it prevents the photomultiplier from being hit by light that is able to pass the emission filter. […] To maximize the detection of the emission light, a test solution containing 50 nM of fluorescein in ES was added to the cuvette and the light guide was fixed to the Xe/Hg-lamp at a position where the photomultiplier detected maximal intensity.

The conditions of assay [2]: in vitro; read-out: dissociation constant (Kd) for Ca2+; cited from earlier work.
The subject of assay [3] is CNG channel (A2 homomer). The settings on record: read-out: EC50 for opening the CNG channel, electrophysiological experiments, ref Ludwig et al., 1990; cited from earlier work.

Data on three compounds can be found in publication PMC9369311, “Examination of Intracellular GPCR-Mediated Signaling with High Temporal Resolution” (International Journal of Molecular Sciences, 2022).

Take `O=C(O)CN(CC(=O)O)Cc1c(O)c(Br)cc2c(COC(=O)NCC(O)c3ccc(O)cc3)cc(=O)oc12` (centres unmarked) [BBHCMOC-octopamine]: the “response time after UV-flash” value is “about 16 s” in assay [1] (5% light intensity); 6 s and ≈ 6 s in assay [1] (100% light intensity). The “octopamine released by photolysis” value in assay [1] (from 10 µM BBHCMOC-octopamine, based on quantum yield) is “approximately 1 µM”. By Kd is commonly meant the concentration at which binding is half-saturated. Consider `Cc1ccc(N(CC(=O)O)CC(=O)O)c(OCCOc2cc(-c3c4cc(F)c(=O)cc-4oc4cc(O)c(F)cc34)ccc2N(CC(=O)O)CC(=O)O)c1` [Fluo-4], for which, in assay [2], the Kd is 0.345 µM. By EC50 is commonly meant the concentration that produces a half-maximal response. For the compound `Nc1ncnc2c1ncn2[C@@H]1O[C@@H]2COP(=O)(O)O[C@H]2[C@H]1O` [cAMP, cyclic adenosine monophosphate], in assay [3], the EC50 was ~2 µM.
